Publication PMC4538536, “In Silico-Based High-Throughput Screen for Discovery of Novel Combinations for Tuberculosis Treatment” (Antimicrobial Agents and Chemotherapy, 2015)
≈ marks a conversion by molar mass, not a printed value. Like-named read-outs stand apart in the source and are kept apart here.

Columns and labels:
M. tuberculosis H37Rv [1] = test: In vitro bactericidal-effect analysis (CFU enumeration of checkerboard wells); format: cell-based, Mycobacterium tuberculosis; conditions: single drug at its MIC (FIC of 1); positive = reduction in CFU
Method: For determining the extent of the bactericidal effect, sample wells which remained blue in the resazurin microtiter assay (REMA) and whose ΣFICs were within the synergistic-to-additive range (<0.7 for doublets and <1.5 for triplets) were plated on Middlebrook 7H10 agar medium and incubated at 37°C for 21 to 28 days, following which bacterial colonies were enumerated to obtain the net reduction in CFU in comparison to the counts for the untreated controls at the start of drug testing, as well as to that achieved when M. tuberculosis was exposed to each drug alone.

[2] = In vivo pharmacokinetics in infected mice (plasma, LC-MS/MS); design: species or system BALB/c mice; conditions: mouse; for AUC(0-t) / Cmax: po, steady state, infected mice
Method: The drugs were formulated in 0.5% hydroxypropyl methyl cellulose (HPMC)–0.1% Tween 80 suspensions as 3- or 4-drug combinations. Formulations were prepared by weighing and adding each compound to the bottle, according to the design. Formulation vehicle was added, and the suspension was stirred overnight. Only uniform suspensions were used, while those that precipitated were abandoned. Formulations were prepared every week, and compound stability was estimated at the end of the week. Pharmacokinetics (PK) analysis was performed on infected mice on the 20th day of dosing. Blood samples were collected from each mouse at 0.5, 2, 4, 6, and 24 h after compound administration. Blood samples of about 30 μl were collected from mice in all groups by serial sampling via the saphenous vein into Microvette CB300 tubes (Starstedt, Germany) coated with EDTA, and plasma (10 μl) was separated following centrifugation. Plasma samples were stored at –20°C until analysis using liquid chromatography-tandem mass spectrometry (LC-MS/MS).
A 1-mg/ml stock solution of each compound was prepared in dimethyl sulfoxide (DMSO) for all of the analytes except PZA and LZD, for which the stock solution was 10 mg/ml in DMSO, and RIF, for which the stock solution was prepared in 50% acetonitrile in water. Three different sets of calibration standard (CS) combinations were prepared by 2-fold dilution of the stock solutions. CS set 1 contained analytes CLO, BDQ, PA824, PZA, and SQ109, CS set 2 contained analytes BTZ043, MXF, THI, EMB, and PZA, and CS set 3 contained LZD, INH, RIF, and PZA. A 16-point calibration curve was utilized for all analytes, and the standard curves ranged from 0.0005 to 20 μg/ml except for PZA and LZD, for which the standard curve range was 0.006 to 200 μg/ml. Plasma samples were precipitated by adding chilled acetonitrile (1:10, vol/vol) containing carbamazepine as an internal standard (10 ng/ml). Samples were vortexed and then centrifuged at 4,000 rpm for 30 min at 10°C. The resulting supernatant was mixed with the mobile phase (50% acetonitrile in water with 0.1% formic acid). Five microliters of the sample was injected on to a liquid chromatographic system (Acquity ultraperformance liquid chromatography [UPLC] system, Waters, Milford, MA) coupled to a triple-quadrupole mass spectrometer (Xevo TQ-S; Waters, Milford, MA). Samples were separated on an LC column (ACE 3 C18, 50 by 4.6 mm, 3 μm particle size; Advanced Chromatography Technologies, Aberdeen, Scotland) by isocratic elution with 40 parts of 20 mM ammonium formate containing 0.1% (vol/vol) formic acid and 60 parts of acetonitrile at a flow rate of 0.5 ml/min with a run time of 4 min. Samples were acquired in positive ion mode and detected by multiple reaction monitoring (MRM). The concentrations of the analyte were determined from a standard curve obtained by plotting known concentrations of the analyte against peak area ratios (analyte/internal standard peak response).
PK analyses of the plasma concentration-time relationships were performed with Phoenix software (version 6.2; Pharsight, USA). A noncompartmental analysis program, model 200, was used to calculate PK parameters. The maximum concentration of drug in plasma (Cmax), time to Cmax (Tmax), elimination half-life (t1/2), and area under the concentration-time curve (AUC) from time zero to infinity (AUC0–∞) were estimated. AUC was computed using the trapezoidal rule (linear up and log down), and the AUC0–∞ was considered only when the extrapolated AUC was not more than 20% of the original value. A minimum of three sample points in the terminal slope were used to calculate half-life.

[3] = tested individually; SQ109 at 25 mg/kg of body weight, EMB at 100-mg/kg dose; cited from earlier work
M. tuberculosis H37Rv [4] = test: MIC determination, resazurin-based microplate assay; format: cell-based, Mycobacterium tuberculosis; conditions: Mycobacterium tuberculosis, single drug

CC[C@@H](CO)NCCN[C@@H](CC)CO [Ethambutol]
ΔLog10 CFU/ml at the MIC (M. tuberculosis H37Rv [1]): 1.40 Log10 CFU/ml
AUC ([2]; BALB/c, plasma, oral, SQ109 25 mg/kg, EMB 100 mg/kg, in 3- and 4-drug combinations, read-out: observed AUC in combinations): 4000 to 9900 ng·h/mL
AUC(0-t) ([2]; BALB/c, plasma, 25 mg/kg, Group 5 triplet EMB 100/BDQ 25/SQ109 25 mg/kg oral, read-out: AUC0-24 in Triplet): 4100 ± 1400 ng·h/mL
Cmax ([2]; BALB/c, plasma, 25 mg/kg, Group 5 triplet EMB 100/BDQ 25/SQ109 25 mg/kg oral, read-out: Cmax in Triplet): 1300 ± 600 ng/mL
AUC(0-t) ([2]; BALB/c, plasma, 100 mg/kg, Group 8 triplet PA824 50/BDQ 25/EMB 100 mg/kg oral, read-out: AUC0-24 in Triplet): 9900 ± 1600 ng·h/mL
Cmax ([2]; BALB/c, plasma, 100 mg/kg, Group 8 triplet PA824 50/BDQ 25/EMB 100 mg/kg oral, read-out: Cmax in Triplet): 2700 ± 200 ng/mL
AUC(0-t) ([2]; BALB/c, plasma, 100 mg/kg, Ref. regimen triplet INH 30/RIF 10/EMB 100 mg/kg oral, read-out: AUC0-24 in Triplet): 7900 ± 2800 ng·h/mL
Cmax ([2]; BALB/c, plasma, 100 mg/kg, Ref. regimen triplet INH 30/RIF 10/EMB 100 mg/kg oral, read-out: Cmax in Triplet): 2200 ± 500 ng/mL
AUC(0-t) ([2]; BALB/c, plasma, 130 mg/kg, Group 9 triplet EMB 100/SQ109 25/LZD 130 mg/kg oral, read-out: AUC0-24 in Triplet): 9600 ± 1600 ng·h/mL
Cmax ([2]; BALB/c, plasma, 130 mg/kg, Group 9 triplet EMB 100/SQ109 25/LZD 130 mg/kg oral, read-out: Cmax in Triplet): 1100 ± 200 ng/mL
AUC(0-t) ([2]; BALB/c, plasma, 150 mg/kg, Group 5 quartet EMB 100/BDQ 25/SQ109 25/PZA 150 mg/kg oral, read-out: AUC0-24 in Quartet): 4000 ± 1100 ng·h/mL
Cmax ([2]; BALB/c, plasma, 150 mg/kg, Group 5 quartet EMB 100/BDQ 25/SQ109 25/PZA 150 mg/kg oral, read-out: Cmax in Quartet): 1200 ± 500 ng/mL
AUC(0-t) ([2]; BALB/c, plasma, 150 mg/kg, Group 8 quartet PA824 50/BDQ 25/EMB 100/PZA 150 mg/kg oral, read-out: AUC0-24 in Quartet): 5700 ± 1100 ng·h/mL
Cmax ([2]; BALB/c, plasma, 150 mg/kg, Group 8 quartet PA824 50/BDQ 25/EMB 100/PZA 150 mg/kg oral, read-out: Cmax in Quartet): 1500 ± 300 ng/mL
AUC(0-t) ([2]; BALB/c, plasma, 150 mg/kg, Ref. regimen quartet INH 30/RIF 10/EMB 100/PZA 150 mg/kg oral, read-out: AUC0-24 in Quartet): 6600 ± 1800 ng·h/mL
Cmax ([2]; BALB/c, plasma, 150 mg/kg, Ref. regimen quartet INH 30/RIF 10/EMB 100/PZA 150 mg/kg oral, read-out: Cmax in Quartet): 1700 ± 600 ng/mL
plasma exposure in combination compared with individual (reported) exposure ([2]; in vivo): lower
reported AUC [3]: 28000 ng·h/mL
MIC (M. tuberculosis H37Rv [4]): 19.6 µM (≈ 4.01 µg/mL)
